Reference: ChEMBL document CHEMBL5375988, “AcGlcAs: A Novel P53-Targeting Arsenical with Potent Cellular Uptake and Cancer Cell Selectivity” (J Med Chem, 2023)
The source made the active and inactive calls. The rule behind the calls is not given here. Peptide text beside a SMILES is read from it. * marks the point of attachment. Cbz = O=C(OCc1ccccc1)*; CH2F = FC*

Columns and labels:
[1] = target: Replicase polyprotein 1ab (Severe acute respiratory syndrome coronavirus 2) (UniProt P0DTD1); experiment: Binding affinity to SARS-CoV-2 MPro with exposed Cys145 assessed as increase in melting temperature at 1:15 ratio in HEPES at pH 7.5 by DSF analysis
NB-4 [2] = experiment: Antiproliferative activity against human NB4 cells expressing PML/RARalpha assessed as cell growth inhibition measured after 48 hrs by CCK-8 assay; format: functional, cell-based
[3] = target: T1, PML-RARalpha (Homo sapiens) (UniProt P10276+P29590); experiment: Induction of Flag-tagged PML/RARalpha (unknown origin) degradation overexpressed in HEK293T cells at 4.2 to 21 uM incubated for 16 hrs by Western blot analysis; format: cell-based; settings: dose 4.2-21 µM
[4] = tested on: Cellular tumor antigen p53 (Homo sapiens), P04637 [V272M]; experiment: Thermostabilization of recombinant p53 V272M mutant (unknown origin) […] assessed as increase in melting temperature at 1:15 ratio in HEPES at pH 7.5 by DSF analysis
[5] = target: T1, PML-RARalpha (Homo sapiens); experiment: Induction of Flag-tagged PML/RARalpha (unknown origin) degradation overexpressed in HEK293T cells at 13 to 65 uM incubated for 16 hrs by Western blot analysis; format: cell-based; settings: dose 13-65 µM
[6] = Plasma stability in dog assessed as half life at […] measured upto 120 mins by LC-MS analysis; format: ADME, cell-free, Canis lupus familiaris
[7] = tested on: GTPase KRas (Homo sapiens), P01116 [G12C]; experiment: Binding affinity to KRAS-G12C mutant (unknown origin) with exposed Cys12 assessed as increase in melting temperature at 1:15 ratio in HEPES at pH 7.5 by DSF analysis
[8] = Plasma stability in mouse assessed as half life at […] measured upto 120 mins by LC-MS analysis; format: ADME, cell-free
[9] = Plasma stability in monkey assessed as half life at […] measured upto 120 mins by LC-MS analysis; format: ADME, cell-free, Macaca mulatta; settings: rhesus monkey
[10] = Plasma stability in human assessed as half life at […] measured upto 120 mins by LC-MS analysis; format: ADME, cell-free
[11] = target: T1, PML-RARalpha (Homo sapiens); experiment: Induction of Flag-tagged PML/RARalpha (unknown origin) degradation overexpressed in HEK293T cells at 0.3 to 1.5 uM incubated for 16 hrs by Western blot analysis; format: cell-based; settings: dose 0.3-1.5 µM
[12] = tested on: Cellular tumor antigen p53 (Homo sapiens), P04637 [V272M]; experiment: Restoration of p53-V272M mutant transcriptional activity on CDKN1A promoter in human NCI-H1299 cells at 22 uM measured after 24 hrs by firefly/renilla based luciferase reporter assay; format: cell-based; settings: filed as activator
[13] = target: T1, PML-RARalpha (Homo sapiens); experiment: Induction of Flag-tagged PML/RARalpha (unknown origin) degradation overexpressed in HEK293T cells at 7.2 to 36 uM incubated for 16 hrs by Western blot analysis; format: cell-based; settings: dose 7.2-36 µM
[14] = tested on: Cellular tumor antigen p53 (Homo sapiens), P04637 [V272M]; experiment: Restoration of p53-V272M mutant transcriptional activity on PUMA promoter in human NCI-H1299 cells at 22 uM measured after 24 hrs by firefly/renilla based luciferase reporter assay; format: cell-based; settings: filed as activator
NB-4 [15] = experiment: Induction of apoptosis in human NB4 cells assessed as viable cells at 3 uM preincubated for 1 hrs followed by replacement with fresh culture medium and measured after 24 hrs by Annexin V-FITC/7AAD staining based flow cytometry assay (reference value: 94%); format: functional; settings: read-out: Activity
NB-4 [16] = experiment: Induction of apoptosis in human NB4 cells assessed as early apoptotic cells at 3 uM preincubated for 1 hrs followed by replacement with fresh culture medium and measured after 24 hrs by Annexin V-FITC/7AAD staining based flow cytometry assay (reference value: 1.93%); format: functional
NB-4 [17] = experiment: Induction of apoptosis in human NB4 cells assessed as late apoptotic cells at 3 uM preincubated for 1 hrs followed by replacement with fresh culture medium and measured after 24 hrs by Annexin V-FITC/7AAD staining based flow cytometry assay (reference value: 3.92%); format: functional
NB-4 [18] = experiment: Induction of apoptosis in human NB4 cells assessed as necrotic cells at 3 uM preincubated for 1 hrs followed by replacement with fresh culture medium and measured after 24 hrs by Annexin V-FITC/7AAD staining based flow cytometry assay (reference value: 0.10%); format: functional
NB-4 [19] = experiment: Induction of apoptosis in human NB4 cells assessed as viable cells at 9 uM preincubated for 1 hrs followed by replacement with fresh culture medium and measured after 24 hrs by Annexin V-FITC/7AAD staining based flow cytometry assay (reference value: 94%); format: functional; settings: read-out: Activity
NB-4 [20] = experiment: Induction of apoptosis in human NB4 cells assessed as early apoptotic cells at 9 uM preincubated for 1 hrs followed by replacement with fresh culture medium and measured after 24 hrs by Annexin V-FITC/7AAD staining based flow cytometry assay (reference value: 1.93%); format: functional
NB-4 [21] = experiment: Induction of apoptosis in human NB4 cells assessed as late apoptotic cells at 9 uM preincubated for 1 hrs followed by replacement with fresh culture medium and measured after 24 hrs by Annexin V-FITC/7AAD staining based flow cytometry assay (reference value: 3.92%); format: functional
[22] = target: T1, PML-RARalpha (Homo sapiens); experiment: Induction of PML/RARalpha degradation in human NB4 cells assessed as residual protein level at 0.1 uM incubated for 1 hrs followed by replacement with fresh culture medium and measured after 16 hrs by Western blot analysis (reference value: 1); format: cell-based
[23] = target: T1, PML-RARalpha (Homo sapiens); experiment: Induction of PML/RARalpha degradation in human NB4 cells assessed as residual protein level at 0.3 uM incubated for 1 hrs followed by replacement with fresh culture medium and measured after 16 hrs by Western blot analysis (reference value: 1); format: cell-based
[24] = target: T1, PML-RARalpha (Homo sapiens); experiment: Induction of PML/RARalpha degradation in human NB4 cells assessed as residual protein level at 1 uM incubated for 1 hrs followed by replacement with fresh culture medium and measured after 16 hrs by Western blot analysis (reference value: 1); format: cell-based
[25] = target: T1, PML-RARalpha (Homo sapiens); experiment: Induction of PML/RARalpha degradation in human NB4 cells assessed as residual protein level at 3 uM incubated for 1 hrs followed by replacement with fresh culture medium and measured after 16 hrs by Western blot analysis (reference value: 1); format: cell-based
[26] = target: T1, PML-RARalpha (Homo sapiens); experiment: Induction of PML/RARalpha degradation in human NB4 cells assessed as residual protein level at 9 uM incubated for 1 hrs followed by replacement with fresh culture medium and measured after 16 hrs by Western blot analysis (reference value: 1); format: cell-based
NB-4 [27] = experiment: Induction of granulocytic differentiation in human NB4 cells assessed as increase in CD11b expression at 3 uM incubated for 1 hrs followed by replacement with fresh culture medium for 48 hrs by flow cytometry analysis (reference value: 1.44%); format: functional
NB-4 [28] = experiment: Induction of granulocytic differentiation in human NB4 cells assessed as increase in CD11b expression at 9 uM incubated for 1 hrs followed by replacement with fresh culture medium for 48 hrs by flow cytometry analysis (reference value: 1.44%); format: functional
NB-4 [29] = experiment: Induction of granulocytic differentiation in human NB4 cells assessed as CD11b positive cells at 3 uM incubated for 1 hrs followed by replacement with fresh culture medium for 48 hrs by flow cytometry analysis relative to control; format: functional
NB-4 [30] = experiment: Induction of granulocytic differentiation in human NB4 cells assessed as CD11b positive cells at 9 uM incubated for 1 hrs followed by replacement with fresh culture medium for 48 hrs by flow cytometry analysis relative to control; format: functional
NB-4 [31] = experiment: Induction of apoptosis in human NB4 cells assessed as necrotic cells at 9 uM preincubated for 1 hrs followed by replacement with fresh culture medium and measured after 24 hrs by Annexin V-FITC/7AAD staining based flow cytometry assay (reference value: 0.10%); format: functional
NB-4 [32] = experiment: Induction of apoptosis in human NB4 cells assessed as viable cells at 27 uM preincubated for 1 hrs followed by replacement with fresh culture medium and measured after 24 hrs by Annexin V-FITC/7AAD staining based flow cytometry assay (reference value: 94%); format: functional; settings: read-out: Activity
NB-4 [33] = experiment: Induction of apoptosis in human NB4 cells assessed as early apoptotic cells at 27 uM preincubated for 1 hrs followed by replacement with fresh culture medium and measured after 24 hrs by Annexin V-FITC/7AAD staining based flow cytometry assay (reference value: 1.93%); format: functional
NB-4 [34] = experiment: Induction of apoptosis in human NB4 cells assessed as late apoptotic cells at 27 uM preincubated for 1 hrs followed by replacement with fresh culture medium and measured after 24 hrs by Annexin V-FITC/7AAD staining based flow cytometry assay (reference value: 3.92%); format: functional
NB-4 [35] = experiment: Induction of apoptosis in human NB4 cells assessed as necrotic cells at 27 uM preincubated for 1 hrs followed by replacement with fresh culture medium and measured after 24 hrs by Annexin V-FITC/7AAD staining based flow cytometry assay (reference value: 0.10%); format: functional
[36] = tested on: Cellular tumor antigen p53 (Homo sapiens), P04637 [V272M]; experiment: Rescue of p53-V272M mutant transcriptional activity on PUMA promoter in human NCI-H1299 cells assessed as fold change in transcriptional activity at 10 uM pretreated for 10 mins to1 hr followed by replacement with fresh culture media and measured after 24 hrs by firefly/renilla based luciferase reporter assay; format: cell-based; settings: filed as activator, time 10-60 min
U-937 [37] = experiment: Cytotoxicity against p53 null human U-937 cells harboring p53 V272M mutant incubated for 48 hrs by CCK-8 assay; format: functional, cell-based; settings: U-937, 48 h
U-937 [38] = experiment: Cytotoxicity against p53 null human U-937 cells harboring empty vector incubated for 48 hrs by CCK-8 assay; format: functional, cell-based; settings: U-937, 48 h
[39] = Half life in iv dosed human; format: ADME, organism-based; settings: in vivo
[40] = Half life in po dosed human; format: ADME, organism-based; settings: in vivo
[41] = Half life in iv dosed rat; format: ADME, organism-based; settings: in vivo
[42] = Half life in iv dosed mouse; format: ADME, organism-based; settings: in vivo

T1 sequence (P10276 whole entry, looked up): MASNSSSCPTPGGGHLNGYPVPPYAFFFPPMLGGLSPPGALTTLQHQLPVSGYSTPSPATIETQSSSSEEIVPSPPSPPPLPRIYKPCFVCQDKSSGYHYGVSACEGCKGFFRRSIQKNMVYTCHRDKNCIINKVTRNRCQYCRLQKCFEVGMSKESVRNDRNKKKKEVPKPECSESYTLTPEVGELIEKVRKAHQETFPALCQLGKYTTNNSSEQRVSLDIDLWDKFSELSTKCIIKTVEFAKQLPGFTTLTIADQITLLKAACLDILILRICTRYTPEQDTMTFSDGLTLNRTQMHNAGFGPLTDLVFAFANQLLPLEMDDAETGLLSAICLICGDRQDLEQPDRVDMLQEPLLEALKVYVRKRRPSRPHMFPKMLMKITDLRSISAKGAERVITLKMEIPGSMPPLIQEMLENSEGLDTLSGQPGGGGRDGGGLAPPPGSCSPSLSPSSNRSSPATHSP
T1 sequence (P29590 whole entry, looked up): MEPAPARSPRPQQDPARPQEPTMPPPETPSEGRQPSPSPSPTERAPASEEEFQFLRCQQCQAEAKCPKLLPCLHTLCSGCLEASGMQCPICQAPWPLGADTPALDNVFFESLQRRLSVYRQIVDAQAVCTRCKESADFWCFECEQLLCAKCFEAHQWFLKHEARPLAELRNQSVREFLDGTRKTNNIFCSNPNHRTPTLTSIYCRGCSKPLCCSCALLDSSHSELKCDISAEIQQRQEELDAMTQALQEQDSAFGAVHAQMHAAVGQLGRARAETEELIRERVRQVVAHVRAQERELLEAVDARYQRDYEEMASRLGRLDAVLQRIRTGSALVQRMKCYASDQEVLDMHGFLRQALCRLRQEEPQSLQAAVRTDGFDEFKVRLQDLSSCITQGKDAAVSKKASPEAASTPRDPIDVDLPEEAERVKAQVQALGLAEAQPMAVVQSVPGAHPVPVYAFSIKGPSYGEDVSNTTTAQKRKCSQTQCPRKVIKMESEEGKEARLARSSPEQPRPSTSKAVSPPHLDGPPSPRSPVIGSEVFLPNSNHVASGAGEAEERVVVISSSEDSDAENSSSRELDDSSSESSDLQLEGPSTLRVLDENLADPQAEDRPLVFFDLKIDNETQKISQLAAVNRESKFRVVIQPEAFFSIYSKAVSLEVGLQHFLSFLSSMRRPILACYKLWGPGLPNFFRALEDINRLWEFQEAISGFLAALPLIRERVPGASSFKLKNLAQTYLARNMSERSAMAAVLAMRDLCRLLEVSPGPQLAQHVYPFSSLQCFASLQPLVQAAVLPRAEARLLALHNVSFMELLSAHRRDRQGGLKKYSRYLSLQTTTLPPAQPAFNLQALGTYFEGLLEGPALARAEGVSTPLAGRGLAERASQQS
Sequence of GTPase KRas (Homo sapiens), P01116 [G12C] (P01116 whole entry G12C): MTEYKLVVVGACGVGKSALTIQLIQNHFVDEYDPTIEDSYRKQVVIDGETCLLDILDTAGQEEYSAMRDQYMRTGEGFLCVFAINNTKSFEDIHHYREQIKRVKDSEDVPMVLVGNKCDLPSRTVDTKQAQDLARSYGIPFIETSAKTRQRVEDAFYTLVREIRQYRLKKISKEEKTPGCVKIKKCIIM

For `COC(=O)C[C@H](NC(=O)[C@H](C)NC(=O)[C@@H](NC(=O)OCc1ccccc1)C(C)C)C(=O)CF` (Cbz-Val-Ala-Asp(OMe)-CH2F), the Activity [1] was “Active”.

In the case of `S1[As]2S[As]3S[As]1S[As](S2)S3`, the IC50 (NB-4 [2]; nb-4) is reported as 1.99 µM, the Activity [3] is reported as “Active” and the Activity [4] is reported as “inactive”.

For `O=[As]12O[As]3(=O)O[As](=O)(O1)O[As](=O)(O2)O3`, the IC50 (NB-4 [2]; nb-4) was 5.56 µM and the Activity [5] was “Active”.

Compound `CC(=O)Oc1ccc(C(c2ccc(OC(C)=O)cc2)c2ccccn2)cc1` [BISACODYL] has a half-life [6] of 2.06 min.

In the case of `C=CC(=O)N1CCN(c2ncnc3c(F)c(-c4c(O)cccc4F)c(Cl)cc23)CC1`, the Activity [7] is reported as “Active”.

For `S1[As]2S[As]3S[As]2S[As]13`, the Activity [4] was “inactive”.

For `CCN(CC)CCOC(=O)c1ccc(N)cc1` [PROCAINE], the half-life [8] was 9.83 min, the half-life [9] was 4.5 min and the half-life [10] was 1.4 min.

In the case of `O=[As]O` [SODIUM ARSENITE], the IC50 (NB-4 [2]; Homo sapiens, NB-4, 48 h) is reported as 0.11 µM and the Activity [11] is reported as “Active”.

In the case of `S=[As](=S)S[As](=S)=S`, the IC50 (NB-4 [2]; nb-4) is reported as 1.2 µM, the Activity [12] is reported as “Active” and the Activity [13] is reported as “Active”. The Activity [14] was “Active”.

`Nc1ccc([As](=O)(O)O)cc1` [ARSANILIC ACID] gave an IC50 (NB-4 [2]; Homo sapiens, NB-4, 48 h) of over 50 µM.

For `O=[As][As+](=O)[O-]` (stereo not given) [ARSENIC TRIOXIDE], the IC50 (NB-4 [2]; Homo sapiens, NB-4, 48 h) was 0.94 µM, the viability at 3 µM (NB-4 [15]) was 93.8% and the Activity (NB-4 [16]) was 2.54%. It also gave an Activity (NB-4 [17]) of 3.48%, an Activity (NB-4 [18]) of 0.23% and a viability at 9 µM (NB-4 [19]) of 93.6%. For the same compound, the Activity (NB-4 [20]) was 2.83%, the Activity (NB-4 [21]) was 3.42% and the Activity [22] was 0.81. The Activity [23] was 0.6, the Activity [24] was 0.57 and the Activity [25] was 0.49. The Activity [26] was 0.41, the Activity (NB-4 [27]) was 1.65% and the Activity (NB-4 [28]) was 1.93%. For the same compound, the Activity (NB-4 [29]) was 1.7%, the Activity (NB-4 [30]) was 2% and the Activity (NB-4 [31]) was 0.17%. It also gave a viability at 27 µM (NB-4 [32]) of 93.3%, an Activity (NB-4 [33]) of 2.88% and an Activity (NB-4 [34]) of 3.59%. For the same compound, the Activity (NB-4 [35]) was 0.21%, the fold change (FC) [36] was 2.2 and the IC50 (U-937 [37]) was 1.07 µM. For the same compound, the IC50 (U-937 [38]) was over 2 µM, the half-life [39] was 60 min and the half-life [40] was 360 min. It also gave a half-life [41] of about 222 min and a half-life [42] of about 258 min.

With `S=[As][As]=S` (stereo not given) the Activity [4] was “inactive”.

Work on `O=S(=O)(O)c1cc(O)c2c(O)c(/N=N/c3ccccc3[As](=O)(O)O)c(S(=O)(=O)O)cc2c1` yielded an IC50 (NB-4 [2]; Homo sapiens, NB-4, 48 h) of over 50 µM.
